Legend:
Format in all cases: in vivo
[1] = tested on: Amaranthus retoflexus (AMARE); assay: Further testing, post-emergence application; details: 1000 g/h, after 13 days
Description: (§1) Seeds of a variety of test species are sown in standard soil in pots (Lolium perenne (LOLPE), Solanum nigrum (SOLNI), Amaranthus retoflexus (AMARE), Setaria faberi (SETFA), Echinochloa crus-galli (ECHCG), Ipomoea hederacea (IPOHE)). After cultivation for one day (pre-emergence) or after 8 days cultivation (post-emergence) under controlled conditions in a glasshouse (at 24/16° C., day/night; 14 hours light; 65% humidity), the plants are sprayed with an aqueous spray solution derived from the formulation of the technical active ingredient in acetone/water (50:50) solution containing 0.5% Tween 20 (polyoxyethelyene sorbitan monolaurate, CAS RN 9005-64-5). Compounds are applied at 1000 g/h unless otherwise stated. The test plants are then grown in a glasshouse under controlled conditions in a glasshouse (at 24/16° C., day/night; 14 hours light; 65% humidity) and watered twice daily. After 13 days for pre and post-emergence, the test is evaluated for the percentage damage caused to the plant. The biological activities are shown in the following table on a five point scale (5=80-100%; 4=60-79%; 3=40-59%; 2=20-39%; 1=0-19%).

[2] = tested on: Echinochloa crus-galli (ECHCG); assay: Further testing, post-emergence application; details: 1000 g/h, after 13 days
Description: as §1

Solanum nigrum (SOLNI) [3] = assay: Further testing, post-emergence application; details: 1000 g/h, after 13 days
Description: as §1

Lolium perenne (LOLPE) [4] = assay: Further testing, post-emergence application; details: 1000 g/h, after 13 days
Description: as §1

Setaria faberi (SETFA) [5] = assay: Further testing, post-emergence application; details: 1000 g/h, after 13 days
Description: as §1

[6] = tested on: Ipomoea hederacea (IPOHE); assay: Further testing, post-emergence application; details: 1000 g/h, after 13 days
Description: as §1

[7] = tested on: Amaranthus retoflexus (AMARE); assay: Further testing, pre-emergence application; details: 1000 g/h, after 13 days
Description: as §1

[8] = tested on: Echinochloa crus-galli (ECHCG); assay: Further testing, pre-emergence application; details: 1000 g/h, after 13 days
Description: as §1

Solanum nigrum (SOLNI) [9] = assay: Further testing, pre-emergence application; details: 1000 g/h, after 13 days
Description: as §1

Lolium perenne (LOLPE) [10] = assay: Further testing, pre-emergence application; details: 1000 g/h, after 13 days
Description: as §1

Setaria faberi (SETFA) [11] = assay: Further testing, pre-emergence application; details: 1000 g/h, after 13 days
Description: as §1

[12] = tested on: Ipomoea hederacea (IPOHE); assay: Further testing, pre-emergence application; details: 1000 g/h, after 13 days
Description: as §1

Bidens pilosa (BIDPI) = assay: Comparative testing, glasshouse herbicide test, spray one day after sowing
Description: (§2) Seeds of a variety of test species are sown in standard soil in pots. After cultivation for one day under controlled conditions in a glasshouse (at 24/16° C., day/night; 14 hours light; 65% humidity), an aqueous spray solution derived from the formulation of the technical active ingredient in 0.6 ml acetone and 45 ml formulation solution containing 10.6% Emulsogen EL (Registry number 61791-12-6), 42.2% N-methyl pyrrolidone, 42.2% dipropylene glycol monomethyl ether (CAS RN 34590-94-8) and 0.2% X-77 (CAS RN 11097-66-8) is applied.
(§3) The test plants are then grown in a glasshouse under controlled conditions in a glasshouse (at 24/16° C., day/night; 14 hours light; 65% humidity) and watered twice daily. After 21 days, the test is evaluated (100=total damage to plant; 0=no damage to plant). Test plants (weed species) include: Alopecurus myosuroides (ALOMY), Bidens pilosa (BIDPI), Euphorbia heterophylla (EPHHL), Lolium perenne (LOLPE), Panicum milaceum (PANMI), Sida spinosa (SIDSP) and Stellaria media STEME).

[13] = tested on: Alopecurus myosuroides (ALOMY); assay: as above
Description: as §2, §3

Lolium perenne (LOLPE) [14] = assay: as above
Description: as §2, §3

Stellaria media (STEME) = assay: as above
Description: as §2, §3

Sida spinosa (SIDSP) = assay: as above
Description: as §2, §3

[15] = tested on: Euphorbia heterophylla (EPHHL); assay: as above
Description: as §2, §3

Panicum milaceum (PANMI) = assay: as above
Description: as §2, §3

[16] = Rate 125, evaluated after 21 days
[17] = Rate 250, evaluated after 21 days

Cn1nnnc1NC(=O)c1nn(C)c(=O)c(C2CCCCC2)c1Cl [Compound 1.001]
80: damage to plant (100=total damage to plant; 0=no damage to plant) (Panicum milaceum (PANMI); [16]) | damage to plant (100=total damage to plant; 0=no damage to plant) (Panicum milaceum (PANMI); [17])
60: damage to plant (100=total damage to plant; 0=no damage to plant) (Lolium perenne (LOLPE) [14]; [16]) | damage to plant (100=total damage to plant; 0=no damage to plant) (Lolium perenne (LOLPE) [14]; [17])
100: damage to plant (100=total damage to plant; 0=no damage to plant) (Bidens pilosa (BIDPI); [16]) | damage to plant (100=total damage to plant; 0=no damage to plant) (Bidens pilosa (BIDPI); [17]) | damage to plant (100=total damage to plant; 0=no damage to plant) (Stellaria media (STEME); [16]) | damage to plant (100=total damage to plant; 0=no damage to plant) (Stellaria media (STEME); [17])
40: damage to plant (100=total damage to plant; 0=no damage to plant) [13, 16] | damage to plant (100=total damage to plant; 0=no damage to plant) [13, 17]
5 (5=80-100%): percentage damage caused to the plant, five point scale [1] | percentage damage caused to the plant, five point scale [2] | percentage damage caused to the plant, five point scale (Solanum nigrum (SOLNI) [3]) | percentage damage caused to the plant, five point scale (Lolium perenne (LOLPE) [4]) | percentage damage caused to the plant, five point scale (Setaria faberi (SETFA) [5]) | percentage damage caused to the plant, five point scale [6] | percentage damage caused to the plant, five point scale [7] | percentage damage caused to the plant, five point scale [8] | percentage damage caused to the plant, five point scale (Solanum nigrum (SOLNI) [9]) | percentage damage caused to the plant, five point scale (Lolium perenne (LOLPE) [10]) | percentage damage caused to the plant, five point scale (Setaria faberi (SETFA) [11]) | percentage damage caused to the plant, five point scale [12]
90: damage to plant (100=total damage to plant; 0=no damage to plant) (Sida spinosa (SIDSP); [16]) | damage to plant (100=total damage to plant; 0=no damage to plant) (Sida spinosa (SIDSP); [17]) | damage to plant (100=total damage to plant; 0=no damage to plant) [15, 16] | damage to plant (100=total damage to plant; 0=no damage to plant) [15, 17]

Source: patent publication US10512268B2, “Herbicidal compounds” (Syngenta Participations AG, priority 2015, dated 2019)
